The Kd is the free concentration of one partner at which half of the binding sites on the other are occupied at equilibrium, for simple one-to-one binding. By EC50 is commonly meant the concentration that produces a half-maximal response. A low value points to greater potency.

The values that follow come from patent US10947252B2, “Inhibitors of KEAP1-Nrf2 protein-protein interaction” (Janssen Pharmaceutica NV, priority 2018, dated 2021).

Test [1] addresses Kelch domain of human KEAP1 (321-624 aa) (Homo sapiens (Human), UniProt Q14145). Nature of the test: KEAP1 KELCH ThermoFluor binding assay.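 Note: Ligand-induced melting temperature shift of E. coli-expressed KEAP1 Kelch protein, Kd estimated from concentration-response curves of ΔTm.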 Conditions: KEAP Kelch […], 1,8-ANS, pH 7.0, average of results obtained, read-out: Tf Kd. (In general: DSF heats the sample and reads unfolding from a dye or from intrinsic fluorescence.)
Test [2] has as its system Glo-Response ARE-luc2P HEK293 cell line. Description: ARE luciferase reporter cell-based assay.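 Note: luciferase signal tracks Nrf2 activation of the ARE once compounds disrupt KEAP1-Nrf2 binding, read with One-Glo reagent, DMSO serving as low control.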 To be noted: Homo sapiens, HEK293, 24 h, average of results obtained.

Sequence of Kelch domain of human KEAP1 (321-624 aa) (Q14145 321-624): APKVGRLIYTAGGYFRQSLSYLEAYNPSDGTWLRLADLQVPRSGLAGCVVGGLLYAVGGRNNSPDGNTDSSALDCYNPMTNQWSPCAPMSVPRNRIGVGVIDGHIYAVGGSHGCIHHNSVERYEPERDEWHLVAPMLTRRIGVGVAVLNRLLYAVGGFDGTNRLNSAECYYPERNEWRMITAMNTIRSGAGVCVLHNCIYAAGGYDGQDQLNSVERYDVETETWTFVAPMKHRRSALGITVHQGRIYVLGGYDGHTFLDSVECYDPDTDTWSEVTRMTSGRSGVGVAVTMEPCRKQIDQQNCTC

Take `Cc1ccc([C@H](c2ccn3c(C(F)(F)F)nnc3c2C)C(C)(C)C(=O)O)cc1CN1CC2(CCOCC2)Oc2ncccc2S1(=O)=O` (single isomer, unassigned) [Example 410, (*R)-3-(3-((1′,1′-dioxido-2,3,5,6-tetrahydrospiro[pyran-4,4′-pyrido[2,3-b][1,4,5]oxathiazepin]-2′(3′H)-yl)methyl)-4-methylphenyl)-2,2-dimethyl-3-(8-methyl-3-(trifluoromethyl)-[1,2,4]triazolo[4,3-a]pyridin-7-yl)propanoic Acid]: the equilibrium dissociation constant (Kd) in test [1] worked out at 2400 nM. The molecule also showed an EC50 in test [2] of 1220 nM.
As to `Cc1ccc([C@H](CC(=O)O)c2ccn3c(C(F)(F)F)nnc3c2C)cc1CN1CC(C)(C)Oc2ccccc2S1(=O)=O` (single isomer, unassigned) [Example 285, (*S)-3-(3-((4,4-Dimethyl-1,1-dioxido-3,4-dihydro-2H-benzo[b][1,4,5]oxathiazepin-2-yl)methyl)-4-methylphenyl)-3-(8-methyl-3-(trifluoromethyl)-[1,2,4]triazolo[4,3-a]pyridin-7-yl)propanoic Acid], the Kd in test [1] turned out to be 1.1 nM. The same molecule displayed an EC50 in test [2] of 129 nM.
For `Cc1ccc([C@H](CC(=O)O)c2ccn3c(C(F)(F)F)nnc3c2C)nc1CN1C[C@@H]2CCCCN2c2ncc(Cl)cc2S1(=O)=O` (single isomer, unassigned) [Example 521, (*R)-3-(6-(((*S)-3-Chloro-5,5-dioxido-7,7a,8,9,10,11-hexahydro-6H-dipyrido[2,1-d:2′,3′-f][1,2,5]thiadiazepin-6-yl)methyl)-5-methylpyridin-2-yl)-3-(8-methyl-3-(trifluoromethyl)-[1,2,4]triazolo[4,3-a]pyridin-7-yl)propanoic Acid], the Kd in test [1] was < 1 nM. In test [2], this molecule returned a half-maximal effective concentration (EC50) of 1.97 nM.
With `Cc1ccc([C@@H](CC(=O)O)c2ccn3c(C(F)(F)F)nnc3c2C)cc1CN1C[C@H]2CCCN2c2ccccc2S1(=O)=O` (single isomer, unassigned) [Example 267, (*R)-3-(3-(((R)-5,5-Dioxido-7a,8,9,10-tetrahydrobenzo[f]pyrrolo[2,1-d][1,2,5]thiadiazepin-6(7H)-yl)methyl)-4-methylphenyl)-3-(8-methyl-3-(trifluoromethyl)-[1,2,4]triazolo[4,3-a]pyridin-7-yl)propanoic Acid], in test [1], the Kd was < 1 nM. In test [2], the EC50 stood at 90.4 nM.
`Cc1ccc(C(CC(=O)O)c2ccc3c(nnn3C3CC3)c2C)cc1CN1CC2(COC2)Oc2ccccc2S1(=O)=O` (racemic) [Example 214, (R/S)-3-(1-Cyclopropyl-4-methyl-1H-benzo[d][1,2,3]triazol-5-yl)-3-(3-((1,1-dioxidospiro[benzo[b][1,4,5]oxathiazepine-4,3′-oxetan]-2(3H)-yl)methyl)-4-methylphenyl)propanoic Acid]: in test [1], the Kd was < 1 nM. In test [2], this molecule returned an EC50 of 5.1 nM.
As for `Cc1ccc([C@H](CC(=O)O)c2ccn3c(C(F)(F)F)nnc3c2C)cc1CN1C[C@@H]2CCCCN2c2ncc(Cl)cc2S1(=O)=O` (single isomer, unassigned) [Example 192, (*S)-3-(3-(((*S)-3-Chloro-5,5-dioxido-7,7a,8,9,10,11-hexahydro-6H-dipyrido[2,1-d:2′,3′-f][1,2,5]thiadiazepin-6-yl)methyl)-4-methylphenyl)-3-(8-methyl-3-(trifluoromethyl)-[1,2,4]triazolo[4,3-a]pyridin-7-yl)propanoic Acid], the Kd in test [1] is < 1 nM. Besides, in test [2], the midpoint of the response, the EC50, lay at 1.4 nM.
Take `Cc1cnc2c(c1)S(=O)(=O)N(Cc1cc(C(CC(=O)O)c3ccn4c(C(F)F)nnc4c3C)ccc1C)CC1(CC1)O2` (stereo not shown) [Example 535, 3-(3-(Difluoromethyl)-8-methyl-[1,2,4]triazolo[4,3-a]pyridin-7-yl)-3-(4-methyl-3-((8′-methyl-1′,1′-dioxidospiro[cyclopropane-1,4′-pyrido[2,3-b][1,4,5]oxathiazepin]-2′(3′H)-yl)methyl)phenyl)propanoic Acid]: in test [1], the Kd is < 1 nM. For the same molecule, the response in test [2] was half-maximal at 146 nM (EC50).
Turning to `CCn1nnc2c(C)c([C@@H](CC(=O)O)c3ccc(C)c(CN4CC5(COC5)Oc5ccccc5S4(=O)=O)n3)ccc21` (single isomer, unassigned) [Example 239, (*R)-3-(6-((1,1-Dioxidospiro[benzo[b][1,4,5]oxathiazepine-4,3′-oxetan]-2(3H)-yl)methyl)-5-methylpyridin-2-yl)-3-(1-ethyl-4-methyl-1H-benzo[d][1,2,3]triazol-5-yl)propanoic Acid], in test [1], the dissociation constant (Kd) was 1.9 nM. The same molecule yielded an EC50 in test [2] of 44 nM.
As for `Cc1cnc([C@@H](c2ccn3c(C(F)F)nnc3c2C)C(C)(C)C(=O)O)cc1CN1CC2(CCOCC2)Oc2nc(OCCN3CCCC3)c(C)cc2S1(=O)=O` (single isomer, unassigned) [Example 640, (*S)-3-(3-(Difluoromethyl)-8-methyl-[1,2,4]triazolo[4,3-a]pyridin-7-yl)-2,2-dimethyl-3-(5-methyl-4-((8′-methyl-1′,1′-dioxido-7′-(2-(pyrrolidin-1-yl)ethoxy)-2,3,5,6-tetrahydrospiro[pyran-4,4′-pyrido[2,3-b][1,4,5]oxathiazepin]-2′(3′H)-yl)methyl)pyridin-2-yl)propanoic Acid], the Kd in test [1] was < 1 nM. Also, a half-maximal effect in test [2] (EC50) was put at 73.9 nM.
Consider `Cc1ccc([C@@H](c2ccn3c(C(F)F)nnc3c2C)C(C)(C)C(=O)O)cc1CN1CC2(CCOCC2)Oc2nc(OCCN3CCCCC3)c(C)cc2S1(=O)=O` (single isomer, unassigned) [Example 379, (*S)-3-(3-(Difluoromethyl)-8-methyl-[1,2,4]triazolo[4,3-a]pyridine-7-yl)-2,2-dimethyl-3-(4-methyl-3-((8′-methyl-1′,1′-dioxido-7′-(2-(piperidin-1-yl)ethoxy)-2,3,5,6-tetrahydrospiro[pyran-4,4′-pyrido[2,3-b][1,4,5]oxathiazepin]-2′(3′H)-yl)methyl)phenyl)propanoic Acid], for which, in test [1], the Kd was < 1 nM. Moreover, in test [2], the EC50 came to 12.3 nM.
Taken in the same sequence, the figures for `CCn1nnc2c(C)c([C@@H](CC(=O)O)c3ccc(C)c(CN4CC5(COC5)Oc5ncccc5S4(=O)=O)n3)ccc21` (single isomer, unassigned) [Example 242, (*R)-3-(6-((1′,1′-Dioxidospiro[oxetane-3,4′-pyrido[2,3-b][1,4,5]oxathiazepin]-2′(3′H)-yl)methyl)-5-methylpyridin-2-yl)-3-(1-ethyl-4-methyl-1H-benzo[d][1,2,3]triazol-5-yl)propanoic Acid] were 1.8 nM and 110 nM.
For `Cc1cnc2c(c1)S(=O)(=O)N(Cc1cc([C@H](CC(=O)O)c3ccn4c(C(F)F)nnc4c3C)ccc1C)CC1(CC1)O2` (single isomer, unassigned) [Example 536, (*S)-3-(3-(Difluoromethyl)-8-methyl-[1,2,4]triazolo[4,3-a]pyridin-7-yl)-3-(4-methyl-3-((8′-methyl-1′,1′-dioxidospiro[cyclopropane-1,4′-pyrido[2,3-b][1,4,5]oxathiazepin]-2′(3′H)-yl)methyl)phenyl)propanoic Acid] the same measures were < 1 nM and 59.7 nM.
Turning to `Cc1ccc(C(c2ccn3c(C(F)(F)F)nnc3c2C)C(C)(C)C(=O)O)cc1CN1CC2(CCOCC2)Oc2nc(OCCN3CCOCC3)ccc2S1(=O)=O` (racemic) [Example 46], in test [1], the Kd was < 1 nM. This molecule showed an EC50 in test [2] of 71.9 nM.
In the case of `Cc1ccc([C@@H](CC(=O)O)c2ccn3c(C(F)(F)F)nnc3c2C)cc1CN1C[C@H]2CCC(F)(F)CN2c2ncccc2S1(=O)=O` (single isomer, unassigned) [Example 456, (*R)-3-(3-(((*R)-10,10-Difluoro-5,5-dioxido-7,7a,8,9,10,11-hexahydro-6H-dipyrido[2,1-d:2′,3′-f][1,2,5]thiadiazepin-6-yl)methyl)-4-methylphenyl)-3-(8-methyl-3-(trifluoromethyl)-[1,2,4]triazolo[4,3-a]pyridin-7-yl)propanoic Acid], in test [1], the Kd is < 1 nM. In test [2], this molecule registered an EC50 of 414 nM.
With `CCn1nnc2c(C)c([C@@H](CC(=O)O)c3ccc(C)c(CN4C[C@@H]5CCCN5c5ncccc5S4(=O)=O)c3)ccc21` (single isomer, unassigned) [Example 156, (*S)-3-(3-(((S)-5,5-Dioxido-7a,8,9,10-tetrahydropyrido[2,3-f]pyrrolo[2,1-d][1,2,5]thiadiazepin-6(7H)-yl)methyl)-4-methylphenyl)-3-(1-ethyl-4-methyl-1H-benzo[d][1,2,3]triazol-5-yl)propanoic Acid], the Kd in test [1] was found to be 2.1 nM. Also, the EC50 in test [2] was 3.6 nM.
For `CCc1c([C@@H](CC(=O)O)c2ccc(C)c(CN3C[C@H]4CCCCN4c4ncc(C)cc4S3(=O)=O)c2)ccn2c(C(F)(F)F)nnc12` (single isomer, unassigned) [Example 516, (*S)-3-(8-Ethyl-3-(trifluoromethyl)-[1,2,4]triazolo[4,3-a]pyridin-7-yl)-3-(4-methyl-3-(((*R)-3-methyl-5,5-dioxido-7,7a,8,9,10,11-hexahydro-6H-dipyrido[2,1-d:2′,3′-f][1,2,5]thiadiazepin-6-yl)methyl)phenyl)propanoic Acid] the same measures were < 1 nM and 11.1 nM.
For the molecule `Cc1ccc([C@H](CC(N)=O)c2ccn3c(C(F)(F)F)nnc3c2C)cc1CN1C[C@@H]2CCCCN2c2ncccc2S1(=O)=O` (single isomer, unassigned) [Example 548, (*S)-3-(3-(((*S)-5,5-Dioxido-7,7a,8,9,10,11-hexahydro-6H-dipyrido[2,1-d:2′,3′-f][1,2,5]thiadiazepin-6-yl)methyl)-4-methylphenyl)-3-(8-methyl-3-(trifluoromethyl)-[1,2,4]triazolo[4,3-a]pyridin-7-yl)propanamide], the Kd in test [1] is 260 nM. Further, the concentration giving a half-maximal response (EC50) in test [2] is 2740 nM.
